In assay [1] the test system is BRAF-V600E in vemurafenib-resistant SK-MEL-239 C3 cells.
Another assay addresses BRAF_V600K (Homo sapiens, UniProt P15056, V600K). Kind of assay: RAF kinase biochemical assay, BRAF V600K. Particulars: Table 3; ATP 100 μM. The procedure:
(§1) BRAF proteins were produced in insect cells at Plexxikon Inc. as N-terminally His-tagged fragments encompassing the kinase domain.
(§2) 1) Test compounds in DMSO were serially diluted and plated into 384-well assay plates at 1 μL/well.
(§3) 2) Added were 15 μL/well of RAF enzyme and biotinylated-MEK1 substrate in kinase buffer.
(§4) 3) Added were 4 μL of ATP (500 μM) in kinase buffer.
(§5) 5) After a brief spin down, the plate was incubated at about room temperature for 40-50 minutes. 6) Added was 5 μL of Stop buffer at final EDTA 20 mM; anti-phospho-MEK1 1:2,500; donor/acceptor beads 3 μg/mL. 7) After brief spin down, the plate was incubated at room temperature for about 3 hours. 8) The plate was read on the Envision multilabel plate reader (Perkin Elmer). […] 2. Results

A further assay deals with BRAF_V600R (Homo sapiens, UniProt P15056, V600R). Kind of assay: RAF kinase biochemical assay, BRAF V600R. Conditions: Table 3; ATP 100 μM. Here is the method: as §1, §2, §3, §4, §5
The next assay has as its system HT-29 cells. Kind of assay: Growth assay (CellTiter-Glo), HT-29. It counts as cell-based. Particulars: Homo sapiens, HT-29, 72 h; colorectal adenocarcinoma; BRAF V600E/WT, RAS WT; 3 days. From the text:
(§6) In order to determine the effects of Formula I on proliferation, a growth assay was established using melanoma cells (A375 and COLO829) and colorectal carcinoma cells (COLO205, HT-29) which each express the BRAFV600E mutation. To show selectivity over wild-type BRAF, several BRAF wild-type cell lines (K562, NOMO-1, MV-4-11 and ML-2) were also examined in the growth assay. The growth assay implemented the Promega CellTiter-Glo Luminescent Cell viability assay, which gives a luminescent readout that is proportional to the amount of ATP present in a cell sample. As ATP levels directly correlate with the number of viable cells, the luminescent signal can be used to determine the potency of Formula I to block the proliferation of the cell lines of interest.
(§7) 1. 3,000 cells were plated in each well for cell lines A375, COLO205, COLO829, HT-29, and SK-MEL-3. 25,000 cells were plated in each well for cell lines K562, ML-2, MV-4-11, and
(§8) NOMO-1 of a 96-well tissue-culture-treated plate (Corning #3610) in a 50 μL volume. Cells were incubated overnight at 37° C.
(§9) 2. Each test compound was plated as an 8-point titration, using 1:3 dilutions in DMSO. The maximum concentration was about 5 mM. Dilute DMSO and test compound of Formula I 1:250 in growth media.
3. […]
(§10) 4. […] Luminescence was measured on a Tecan Safire plate reader. […]

For another assay, the target named is BRAF_V600M (Homo sapiens, UniProt P15056, V600M). Nature of the assay: RAF kinase biochemical assay, BRAF V600M. Particulars: Table 3; ATP 100 μM. The procedure:
as §1, §2, §3, §4, §5

The next assay concerns NOMO-1 cells. Kind of assay: Growth assay (CellTiter-Glo), NOMO-1. The format is cell-based. Conditions: Homo sapiens, NOMO-1, 72 h; acute myeloid leukemia; BRAF WT, KRAS-G13D; 3 days.
From the text: as §6, §7, §8, §9
3. […]
as §10

In another assay the target is BRAF_V600A (Homo sapiens, UniProt P15056, V600A). Nature of the assay: RAF kinase biochemical assay, BRAF V600A. Particulars: Table 3; ATP 100 μM. Here is the method: as §1, §2, §3, §4, §5
Another assay concerns ML-2 cells. Nature of the assay: Growth assay (CellTiter-Glo), ML-2. It counts as cell-based. Conditions: Homo sapiens, ML-2, 72 h; acute myelomonocytic leukemia; BRAF WT, KRAS-A146T; 3 days.
From the text: as §6, §7, §8, §9
3. […]
as §10

The subject of the next assay is MV-4-11 cells. Kind of assay: Growth assay (CellTiter-Glo), MV-4-11. The format is cell-based. Conditions: Homo sapiens, MV4-11, 72 h; biphenotypic B myelomonocytic leukemia; BRAF WT, RAS WT; 3 days.
From the text: as §6, §7, §8, §9
3. […]
as §10

A further assay relates to K562 cells. Nature of the assay: Growth assay (CellTiter-Glo), K562. Conditions: Homo sapiens, K562, 72 h; chronic myeloid leukemia; BRAF WT, RAS WT; 3 days. It counts as cell-based.
From the text: as §6, §7, §8, §9
3. […]
as §10

Assay [2] addresses NIH/3T3 cells stably expressing KIAA1549-BRAF fusions (Homo sapiens, UniProt P15056). Nature of the assay: BRAF fusion xenograft tumor growth. It counts as in vivo, balb/c nu/nu mice. Conditions: all three xenografts (three of the four KIAA1549-BRAF fusions); flank of balb/c nu/nu mice. Here is the method: NIH/3T3 (ATCC® CRL-1658™) cells stably expressing KIAA1549-BRAF fusions (Fusion-1, Fusion-2, Fusion-3, and Fusion-4) were injected into the flank of balb/c nu/nu mice. Tumor growth was measured with calipers. Ellipsoid tumor volume was calculated using the following formula: volume=½·length·width^2.

Assay [3] concerns pERK in SKBR3 cells (over-expression of HER2). Nature of the assay: pERK levels in SKBR3. The format is cell-based. Conditions: human breast adenocarcinoma cell line. The procedure: The compound of Formula II was also evaluated in the human SCC cell line A431 and the human breast adenocarcinoma cell line SKBR3 as these cells achieve MAPK pathway activation by upstream signals feeding into RAS (through over-expression of EGFR and HER2, respectively).
Phospho-ERK AlphaScreen® assay: The degree of ERK phosphorylation was determined using an AlphaScreen® assay where an increase in ERK1/2 phosphorylation at Thr202/Tyr204 brought the donor and acceptor AlphaScreen® beads into close proximity, generating a signal for quantification. To determine the effects of compound treatment on phosphorylation of ERK1/2, cells were plated in a 96-well plate and treated with an 8-point titration of compound for one hour at 37° C. before lysis. To detect pERK, cell lysates were incubated with streptavidin-coated AlphaScreen® donor beads, anti-mouse IgG AlphaScreen® acceptor beads, a biotinylated anti-ERK1/2 rabbit antibody, and a mouse antibody that recognizes ERK1/2 only when it is phosphorylated on Thr202 and Tyr204. […] An increase in ERK1/2 phosphorylation at Thr202/Tyr204 brings the donor and acceptor AlphaScreen® beads into close proximity, generating a signal that can be quantified on an EnVision reader (Perkin Elmer).
Phospho-ERK immunoblot analysis: Western blots were performed by standard techniques and analyzed on an Odyssey Infrared Scanner (Li-COR Biosciences). […]

Sequence of BRAF_V600R (P15056 448-723 V600R): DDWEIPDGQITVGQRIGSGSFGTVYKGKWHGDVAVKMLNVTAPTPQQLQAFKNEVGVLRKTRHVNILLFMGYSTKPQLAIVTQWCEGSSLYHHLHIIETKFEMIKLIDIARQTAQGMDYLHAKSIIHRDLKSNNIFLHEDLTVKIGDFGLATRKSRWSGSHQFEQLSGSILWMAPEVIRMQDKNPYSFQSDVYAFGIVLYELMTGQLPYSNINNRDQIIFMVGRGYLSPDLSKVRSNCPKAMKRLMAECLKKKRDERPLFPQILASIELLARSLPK
Sequence of NIH/3T3 cells stably expressing KIAA1549-BRAF fusions (P15056 448-766 limits assumed): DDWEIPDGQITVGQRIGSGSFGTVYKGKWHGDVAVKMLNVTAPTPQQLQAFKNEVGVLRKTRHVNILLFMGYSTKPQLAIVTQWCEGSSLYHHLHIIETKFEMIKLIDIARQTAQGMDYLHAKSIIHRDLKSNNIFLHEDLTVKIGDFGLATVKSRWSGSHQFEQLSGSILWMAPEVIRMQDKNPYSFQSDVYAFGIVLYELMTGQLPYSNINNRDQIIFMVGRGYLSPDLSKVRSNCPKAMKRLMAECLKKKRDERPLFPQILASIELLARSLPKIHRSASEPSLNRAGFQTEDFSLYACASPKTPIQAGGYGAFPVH
Sequence of BRAF_V600K (P15056 448-723 V600K): as the sequence (P15056 448-723 V600R) above, with R153K counted along it
Sequence of BRAF_V600A (P15056 432-726 V600A): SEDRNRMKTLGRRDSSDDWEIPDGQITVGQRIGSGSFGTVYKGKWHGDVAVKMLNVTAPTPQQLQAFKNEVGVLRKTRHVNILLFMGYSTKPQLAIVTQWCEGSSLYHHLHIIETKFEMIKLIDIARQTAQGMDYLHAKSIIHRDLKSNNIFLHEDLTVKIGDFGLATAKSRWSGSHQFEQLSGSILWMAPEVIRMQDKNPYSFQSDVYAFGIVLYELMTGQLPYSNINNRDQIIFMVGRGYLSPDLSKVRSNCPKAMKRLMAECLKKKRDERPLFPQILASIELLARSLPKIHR
Sequence of BRAF_V600M (P15056 432-726 V600M): as the sequence (P15056 432-726 V600A) above, with A169M counted along it

For the compound `O=C(c1c(F)ccc(NS(=O)(=O)N2CC[C@@H](F)C2)c1F)c1c[nH]c2ncc(-c3cnc(C4CC4)nc3)cc12` [Formula I, (3R)—N-[3-[5-(2-cyclopropylpyrimidin-5-yl)-1H-pyrrolo[2,3-b]pyridine-3-carbonyl]-2,4-difluorophenyl]-3-fluoropyrrolidine-1-sulfonamide], the “Inhibition of BRAF-V600E in vemurafenib-resistant C3 (in words)” value in [1] is listed as “potent inhibitor”. The IC50 against BRAF_V600K is 3.9 nM; on BRAF_V600R it was 3.5 nM; with HT-29 cells it was 840 nM; against BRAF_V600M, 9.8 nM; in the assay on NOMO-1 cells, > 10 µM; against BRAF_V600A, 14.2 nM. Further, the IC50 with ML-2 cells, in the assay on MV-4-11 cells and in the assay with K562 cells was > 10 µM in each case. For the same compound, the “Inhibition of xenograft growth (tumor volume)” value in [2] is given as ≥ 50%.
In the case of `CCN(C)S(=O)(=O)Nc1ccc(F)c(C(=O)c2c[nH]c3ncc(-c4cnc(C5CC5)nc4)cc23)c1F` [Formula II, 5-(2-cyclopropylpyrimidin-5-yl)-3-[3-[[ethyl(methyl)sulfamoyl]amino]-2,6-difluoro-benzoyl]-1H-pyrrolo[2,3-b]pyridine], the “Change of pERK levels in SKBR3 (in words)” value in [3] is “did not increase pERK levels”.

The values above are taken from US9814714B2, “Kinase modulation, and indications therefor” (Plexxikon Inc., priority 2015, dated 2017).
